From patent US11918662B2, “Heterocyclic compounds and imaging agents for imaging huntingtin protein” (CHDI Foundation, Inc., priority 2020, dated 2024) come the findings set out here.

The IC50 is the point on the concentration scale where inhibition reaches its midpoint.

The assay deals with T1, MBP-HTT(1-89)Q46-His(6×) (“Exon1-Q46”) protein aggregates (Homo sapiens, UniProt P42858, INS38QQQQQQQQQQQQQQQQQQQQQQQQQ).
T1 construct: MBP-HTT(1-89)Q46-His(6×); His(6×) (C); made in house
T1 sequence (P42858 with tags, fused parts or gaps with the stated changes limits assumed): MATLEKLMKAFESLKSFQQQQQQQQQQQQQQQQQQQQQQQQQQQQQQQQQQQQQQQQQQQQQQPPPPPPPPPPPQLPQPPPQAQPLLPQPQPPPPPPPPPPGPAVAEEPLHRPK
The assay can be described thus: Exon1-Q46 Radioligand Binding Assay. As to conditions: displacement of 0.3 nM [3H3-methyl]-5-((5-methoxypyridin-2-yl)methoxy)-2-(pyrazin-2-yl)benzo[d]oxazole from 1 μM aggregated Exon1-Q46, 60 minutes at 37° C.; read-out: Potency Range (IC50). As for the experimental part:
Exon1-Q46 Radioligand Binding Assay
For experiments 30 μM MBP-Exon1-Q46 was incubated with 150 μg/mL thrombin in assay buffer (150 mM NaCl, 50 mM Tris pH 8.0) and 2 mM CaCl2 for 16 hours at 37° C. Aggregated Exon1-Q46 was pelleted by centrifugation for 5 minutes at 13,000 rpm in a bench top centrifuge and re-dissolved in the same volume of assay buffer. […] For the RBA, Q46 protein aggregates and test compounds were pre-incubated in assay buffer for 20 minutes at room temperature, in 100 μL/well in a 96-well plate (pp, round bottom). Then, ligand was added in 50 μL/well and incubated for 60 minutes at 37° C. Final assay concentrations were […] test compound, 1 μM Exon1-Q46 protein (equivalent monomer concentration) and 0.3 nM ligand [^3H3-methyl]-5-((5-methoxypyridin-2-yl)methoxy)-2-(pyrazin-2-yl)benzo[d]oxazole. Samples were transferred onto GF/B filter plates and washed 2× with 200 μL PBS using a Filtermate Harvester. After drying filter plates for 1 hour at 55° C., the back of the plates were sealed with foil and 30 μL/well scintillation fluid (Packard MicroScint 40) added, incubated for 15 minutes in the dark and counted in a MicroBeta reader. […] IC50 values were determined with a sigmoidal inhibition model with four variables (top, bottom, slope, IC50) in a global fit using the normalized replicate data.
For the molecule `COc1ccc(NC(=O)CCCn2c(=O)c3cccn3c3cnccc32)nc1` [Example 6-4], the IC50 was less than 100 nM. For the molecule `COc1ccnc(NC(=O)CCCn2c(=O)c3cccn3c3ccccc32)c1` [Example 5-4], the IC50 was less than 100 nM.

Consider `Cn1ncc2c(=O)n(CCC(=O)Nc3ccc(Cl)cc3F)c3cc(F)ccc3c21` [Example 9-16], for which the IC50 is less than 100 nM. For the molecule `CN1CCN(C(=O)CCCn2c(=O)c3cccn3c3ccc(F)cc32)CC1` [Example 1-29], the IC50 was 100 to 500 nM.

Consider `COCCNC(=O)CCCn1c(=O)c2cccn2c2ccc(F)cc21` [Example 1-31], for which the IC50 lay within 100 to 500 nM.

Take `O=C(CCn1c(=O)c2cccn2c2ccc(F)cc21)N1CCc2ccccc2C1` [Example 3-44]: the IC50 is less than 100 nM. Then `COc1ccc(N(C)C(=O)CCn2c(=O)c3cccn3c3ccc(F)cc32)cc1` [Example 3-14], with less than 100 nM; and `Cn1ncc2c(=O)n(CCC(=O)N3Cc4ccncc4C3)c3cc(F)ccc3c21` [Example 9-12], with less than 100 nM; and `Cn1ncc2c(=O)n(CCC(=O)N3Cc4cccnc4C3)c3cc(F)ccc3c21` [Example 9-4], with less than 100 nM. The same measure for `O=C(CCCn1c(=O)c2cccn2c2ccc(Br)cc21)N1CCCCC1` [Example 29-5]: less than 100 nM; for `COc1ccc(NC(=O)CCCn2c(=O)c3cccn3c3ccccc32)cc1` [Example 5-2]: less than 100 nM; for `Cc1ccc(NC(=O)CCn2c(=O)c3ccnn3c3ccc(F)cc32)nc1` [Example 8-10]: less than 100 nM.

Regarding `COc1ccc(NC(=O)CCn2c(=O)c3ccc(Cl)n3c3ccc(F)cc32)nc1` [Example 7-1], the IC50 was less than 100 nM.

For `O=C(CCCn1c(=O)c2cccn2c2ccc(F)cc21)Nc1ccccn1` [Example 1-6], the IC50 was less than 100 nM. Consider `COc1ccc(NC(=O)CCn2c(=O)c3cc(F)cn3c3ccc(F)cc32)nc1` [Example 3-66], for which the IC50 is less than 100 nM. As to `Cn1ncc2c(=O)n(CCC(=O)N3CCc4ccncc43)c3cc(F)ccc3c21` [Example 9-9], the IC50 was less than 100 nM. The same measure for `O=C(CCCn1c(=O)c2cccn2c2ccc(F)cc21)NC1CCCCC1` [Example 1-35]: 100 to 500 nM; for `Cc1ccc(NC(=O)CCCn2c(=O)c3cccn3c3ncccc32)cc1` [Example 4-1]: less than 100 nM. Then `Cn1nc(NC(=O)CCn2c(=O)c3cccn3c3ccc(F)cc32)ccc1=O` [Example 3-9], with less than 100 nM. Then `COc1ccc(NC(=O)CCCn2c(=O)c3cccn3c3ccc(OC)cc32)cc1` [Example 5-7], with less than 100 nM; and `COc1ccc(NC(=O)CCn2c(=O)c3ccnn3c3ccc(F)cc32)nc1` [Example 8-1, 3-{7-Fluoro-4-oxo-4H,5H-pyrazolo[1,5-a]quinoxalin-5-yl}-N-(5-methoxypyridin-2-yl)propanamide], with less than 100 nM.

For the molecule `O=C(CCn1c(=O)c2ccnn2c2ccc(F)cc21)N1CCc2cnccc21` [Example 8-6], the IC50 is less than 100 nM. Then `COc1ccc(NC(=O)CCn2c(=O)c3cccn3c3ccc(F)cc32)cc1` [Example 3-3], with less than 100 nM; and `COc1ccc(C(=O)NCCn2c(=O)c3cccn3c3ccc(F)cc32)nc1` [Example 14-2], with less than 100 nM.

Take `O=C(CCCn1c(=O)c2cccn2c2ccc(F)cc21)NCc1ccccc1` [Example 1-15]: the IC50 was less than 100 nM. In the case of `C[C@@H]1CN(C(=O)CCn2c(=O)c3cccn3c3ccc(F)cc32)C[C@H]1C` [Example 1-49], the IC50 is less than 100 nM. Then `O=C(CCn1c(=O)c2cccn2c2ccc(F)cc21)N1CCc2cnccc21` [Example 3-58], with less than 100 nM; and `Cn1ncc2c(=O)n(CCC(=O)Nc3cccc(F)c3)c3cc(F)ccc3c21` [Example 9-30], with less than 100 nM. The same measure for `COc1ccc(NC(=O)CCn2c(=O)c3cnn(C)c3c3ccc(F)cc32)c(F)c1` [Example 9-20]: less than 100 nM. Regarding `Cn1ncc2c(=O)n(CCC(=O)Nc3ccccc3Cl)c3cc(F)ccc3c21` [Example 9-17], the IC50 was less than 100 nM. Regarding `COc1ccc(NC(=O)CCn2c(=O)c3cccn3c3ccc(F)cc32)nc1` [Example 3-6], the IC50 was less than 100 nM. With `Cc1cccc(NC(=O)CCCn2c(=O)c3cccn3c3ccc(F)cc32)c1` [Example 1-11], the IC50 is less than 100 nM.

Consider `Cc1ccc(NC(=O)CCCn2c(=O)c3nccn3c3ccc(F)cc32)cc1` [Example 5-12], for which the IC50 was less than 100 nM. Then `O=C(CCCn1c(=O)c2cccn2c2ccc(F)cc21)N1CCOCC1` [Example 29-1], with less than 100 nM. Then `COc1ccnc(NC(=O)CCCn2c(=O)c3cccn3c3ccncc32)c1` [Example 2-4], with less than 100 nM; and `O=C(CCCn1c(=O)c2cccn2c2cccnc21)NC1CCCCCC1` [Example 4-10], with less than 100 nM. The same measure for `COc1ccnc(NC(=O)CCCn2c(=O)c3cccn3c3cccnc32)c1` [Example 4-8]: less than 100 nM; for `Cn1ncc2c(=O)n(CCC(=O)Nc3cc(F)ccc3F)c3cc(F)ccc3c21` [Example 9-21]: less than 100 nM. In the case of `COc1cccc(NC(=O)CCCn2c(=O)c3cccn3c3ccc(F)cc32)c1` [Example 1-14], the IC50 is less than 100 nM. Then `CC(C)NC(=O)CCCn1c(=O)c2cccn2c2ccc(F)cc21` [Example 1-27], with 100 to 500 nM; and `Cc1ccc(NC(=O)CCCn2c(=O)c3cccn3c3cccnc32)cc1` [Example 4-6], with less than 100 nM.

Turning to `CN(C)C(=O)CCn1c(=O)c2cccn2c2ccc(F)cc21` [Example 3-36], the IC50 is less than 100 nM. Then `COc1ccnc(NC(=O)CCCn2c(=O)c3nccn3c3ccc(F)cc32)c1` [Example 5-13], with 100 to 500 nM; and `O=C(CCn1c(=O)c2cccn2c2ccc(F)cc21)Nc1ccncc1` [Example 3-18], with less than 100 nM; and `O=C(CCCn1c(=O)c2cccn2c2ccccc21)N1CCCCC1` [Example 5-18], with less than 100 nM. The same measure for `COc1ccc(C(=O)NCCn2c(=O)c3cccn3c3ccccc32)nc1` [Example 14-1, 5-Methoxy-N-(2-{4-oxo-4H,5H-pyrrolo[1,2-a]quinoxalin-5-yl}ethyl)pyridine-2-carboxamide]: less than 100 nM. Then `COc1ccc(NC(=O)CCCn2c(=O)c3cccn3c3ccc(OC)cc32)nc1` [Example 5-9], with less than 100 nM; and `O=C(CCn1c(=O)c2cc(F)cn2c2ccc(F)cc21)NCc1ccccn1` [Example 3-62], with less than 100 nM. Consider `Cc1ccc(NC(=O)CCCn2c(=O)c3cccn3c3ccncc32)cc1` [Example 2-1, 4-(7-Oxo-2,8,11-triazatricyclo[7.4.0.0^2,6]trideca-1(9),3,5,10,12-pentaen-8-yl)-N-(p-tolyl)butanamide], for which the IC50 was less than 100 nM. Then `O=C(CCn1c(=O)c2cccn2c2ccc(F)cc21)Nc1ccccc1Cl` [Example 3-15], with less than 100 nM; and `Cn1nc(C(=O)NCCn2c(=O)c3cccn3c3ccc(F)cc32)ccc1=O` [Example 15-1], with less than 100 nM; and `Cc1ccc(NC(=O)CCn2c(=O)c3cccn3c3ccccc32)cn1` [Example 3-68], with less than 100 nM. The same measure for `[2H]C(C(=O)Nc1ccc(F)cc1F)C([2H])([2H])n1c(=O)c2cnn(C)c2c2ccc(F)cc21` (stereo not drawn) [Example 20-1]: less than 100 nM; for `Cn1ncc2c(=O)n(CCNC(=O)c3ccccc3F)c3cc(F)ccc3c21` [Example 16-2]: less than 100 nM. The same measure for `COc1ccc(CCCn2c(=O)c3cccn3c3ccc(F)cc32)cn1` [Example 18-1, 7-Fluoro-5-[3-(6-methoxy-3-pyridyl)propyl]pyrrolo[1,2-a]quinoxalin-4-one]: less than 100 nM; for `Cn1ncc2c(=O)n(CCC(=O)N3CCc4ccccc43)c3cc(F)ccc3c21` [Example 9-2]: less than 100 nM. As to `C[C@@H]1CN(C(=O)CCCn2c(=O)c3cccn3c3ccc(F)cc32)C[C@@H](C)O1` [Example 1-1, 5-{4-[(2R,6R)-2,6-Dimethylmorpholin-4-yl]-4-oxobutyl}-7-fluoro-4H,5H-pyrrolo[1,2-a]quinoxalin-4-one], the half-maximal inhibitory concentration (IC50) is less than 100 nM. On to `C[C@@H]1CN(C(=O)CCCn2c(=O)c3cccn3c3ccc(F)cc32)C[C@H]1C` [Example 1-48], for which the IC50 was less than 100 nM. For the molecule `O=c1c2cccn2c2ccc(F)cc2n1CCN1CCc2ccccc2C1` [Example 13-1, 7-Fluoro-5-[2-(1,2,3,4-tetrahydroisoquinolin-2-yl)ethyl]-4H,5H-pyrrolo[1,2-a]quinoxalin-4-one], the IC50 was less than 100 nM. Regarding `COc1ccccc1NC(=O)CCCn1c(=O)c2cccn2c2ccc(F)cc21` [Example 1-17], the IC50 is less than 100 nM. Take `Cn1ncc2c(=O)n(CCC(=O)Nc3cccc(F)c3F)c3cc(F)ccc3c21` [Example 9-13]: the IC50 is less than 100 nM. Then `O=C(CCCn1c(=O)c2cccn2c2ccc(F)cc21)NC1CCC(C(F)(F)F)CC1` (stereo not drawn) [Example 1-39], with less than 100 nM; and `COc1cccnc1NC(=O)CCn1c(=O)c2cccn2c2ccc(F)cc21` [Example 3-17], with less than 100 nM.
